Measured values reported in ChEMBL document CHEMBL1155629, “Cytotoxic prenyleudesmane diterpenes from the fruits of Dysoxylum kuskusense” (2000).
≈ marks a conversion by molar mass, not a printed value.

Tests used:
Format in all cases: functional
Settings in all cases: read-out: ED50 (the source's name)
P388 = assay: Cytotoxicity against mouse P388 cells
A549 = assay: Cytotoxicity against human A549 cells
HT-29 = assay: Cytotoxicity against human HT29 cells

Structure (SMILES) | EC50 (P388) [µg/mL] | EC50 (A549) [µg/mL] | EC50 (HT-29) [µg/mL]
CC(C)=CC(=O)/C=C(\C)C1CC[C@@]2(C)CC(=O)C=C(C)[C@@H]2C1 (stereo partly specified) [DYSOKUSONE D] | 3.87 (≈ 12.9 µM) | 2.39 (≈ 7.95 µM) | 4.68 (≈ 15.6 µM)
CC1=CC(=O)C[C@]2(C)CCC(/C(C)=C/C=C/C(C)(C)O)C[C@@H]12 (stereo partly specified) [DYSOKUSONE E] | 2.64 (≈ 8.73 µM) | 3.76 (≈ 12.4 µM) | 4.89 (≈ 16.2 µM)
